# Marks after values point to notes of the source that are not given here.
# Assays:
# [1] = test system: C57 BL/6 mice; assay: Locomotor activity and locomotor pattern following repeated administration of morphinans or PCP; format: in vivo
# [2] = test system: LPS-treated mice; assay: Striatal dopamine and metabolites in LPS-treated mice; format: in vivo; conditions: for Concentration DA in the striatum: 3 weeks after LPS
# Description: (§1) Control animals received striatal injection with PBS.
# Mice were sacrificed at 3 weeks after LPS treatment.
# [3] = test system: MPTP-treated mice; assay: Striatal dopamine and metabolites (HPLC-EC) in MPTP-treated mice; conditions: for Concentration DA in the striatum: mean ± S.E.M., 8 animals
# [4] = molecular target: σ1 receptors (Homo sapiens, UniProt Q99720); conditions: cited from earlier work
# Chain of σ1 receptors (Q99720 whole entry): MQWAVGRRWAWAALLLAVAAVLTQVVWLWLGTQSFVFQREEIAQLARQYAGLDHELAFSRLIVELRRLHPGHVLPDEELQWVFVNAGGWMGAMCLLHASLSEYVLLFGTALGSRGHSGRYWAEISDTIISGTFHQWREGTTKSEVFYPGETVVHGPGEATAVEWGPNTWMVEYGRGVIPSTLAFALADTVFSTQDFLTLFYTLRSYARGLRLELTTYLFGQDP
# [5] = test system: MA-treated mice; assay: Nigral TH-IR in MA-treated mice; conditions: 24 mg/kg i.p.
# [6] = test system: MA-treated mice; assay: MA-induced hyperlocomotion; format: in vivo; conditions: morphinan 20 mg/kg i.p. 30 min before MA 1 mg/kg i.p./day x 7
# Protocol: FIGS. 39A-39D show effect of morphinans on the MA-induced hyperactivity in the mice. Each morphinan (20 mg/kg, i.p.) was administered 30 minutes prior to MA (1 mg/kg, i.p.). All treatments were performed for 7 days.
# [7] = test system: MPTP-treated mice; assay: Hypokinesia (reduction in locomotor activity) induced by MPTP; format: in vivo; conditions: 12 or 24 mg/kg i.p. 30 min before MPTP (20 mg/kg/day x 7), last three days
# [8] = test system: C57 BL/6 mice; assay: Conditioned place preference (psychological dependence) following repeated administration of morphinans or PCP; format: in vivo; conditions: 20 or 40 mg/kg i.p. (PCP 2.5 or 5 mg/kg); vs saline
# Protocol: On day 14, the guillotine doors were raised. […] Data were analyzed between 0900 and 1700 hr.
# [9] = test system: MA-treated mice; assay: Methamphetamine (MA)-induced hyperthermia; format: in vivo; conditions: 24 mg/kg; MA 7.5 mg/kg i.p. x 4 at 2-h intervals
# Protocol: Rectal temperature was recorded at 40 min after each MA treatment. […] Mice were sacrificed at 3 days after final MA injection.
# FIGS. 10A-10B show effect of morphinans on the methamphetamine (MA)-induced hyperthermia. Mice received i.p. injections of MA (four injections of 7.5 mg/kg each) at 2-h intervals under the ambient temperature of 22.0±0.5° C. Temperatures were recorded at 40 min after each MA treatment (Arrow=MA injection).
# [10] = test system: MA-treated mice; assay: MA-induced behavioural sensitization; conditions: morphinan 20 mg/kg i.p., last 3 days of wash-out (Ex. 3.12)
# Protocol: Morphinans (20 mg/kg, i.p.) were administered last 3 days of wash-out period.
# [11] = test system: LPS-treated mice; assay: Hypokinesia induced by intrastriatal LPS; conditions: 12 or 24 mg/kg, twice before bilateral intrastriatal LPS
# Protocol: Male mice were anesthetized with chloral hydrate (200 mg/kg, i.p.) and positioned in a small-animal stereotaxic apparatus. […] LPS (2 μg in a volume of 2 μl of PBS) was injected into both sides of the striatum over a period of 2 min, and the injection needle was kept in place for 2 min after the injection. Control animals received striatal injection with PBS.
# Ten min after the last treatment with each drug, locomotor activity was measured for 30 min. After measuring the locomotor activity (i.e. 40 min after the last drug injection), the ‘absolute turn angular’ was analyzed in a 3-min monitoring period using an automated video-tracking system (Noldus Information Technology, Wagenin, The Netherlands) to examine locomotor patterns. […] Eight test boxes (40×40×30 cm high) were operated simultaneously by an IBM computer. Animals were studied individually during locomotion in each test box, where they were adapted for 10 min before starting the experiment. […] The distance traveled in cm by the animals in horizontal locomotor activity was analyzed (13, 25, 27). Data were collected and analyzed between 0900 and 1700 hr.
# [12] = test system: MA-treated mice; assay: MA-induced FRA-IR in the striatum; conditions: morphinan 20 mg/kg i.p.; MA 1 mg/kg i.p./day x 7
# Protocol: Therefore, brains were removed and used for immunocytochemical analysis at 18 h after the final cocaine/MA treatment. The coronal sections containing striatum were processed for FRA immunocytochemistry. […] The FRA antibody was used at 1:2,000 as the optimal dilution. The FRA-IR in the striatum was calculated using image analysis systems with a polaroid digital microscopic camera (Optimas version 6.2).
# [13] = test system: MPTP-treated mice; assay: Nigral tyrosine hydroxylase-like immunoreactivity in MPTP-treated mice; conditions: 24 mg/kg i.p.
# Protocol: Each morphinan was administered 30 min prior to every injection of MPTP for last three days (from day 4th to day 7th). Animals were sacrificed 24 h after the last MPTP treatment.
# [14] = test system: cocaine-treated mice; assay: Cocaine-induced hyperlocomotion; format: in vivo
# Protocol: FIGS. 34A-34B show effect of morphinans on the cocaine-induced hyperactivity in the mice. Morphinans (15 and 30 mg/kg, i.p.) were administered 30 minutes prior to cocaine (5 and 20 mg/kg, i.p.). Central activity means relatively non-specific locomotor activity in the center of the box. Marginal activity means circling behaviors. All treatments were performed for 7 days.
# FIGS. 35A-35D show effect of dimemorfan (DF) on cocaine-induced hyperactivity in the mice. DF (20 mg/kg, i.p.) was administered 30 minutes prior to cocaine (5 and 20 mg/kg, i.p.). All treatments were performed for 7 days.
# [15] = test system: LPS-treated mice; assay: Nigral TH-IR in LPS-treated mice; format: in vivo; conditions: 24 mg/kg i.p.
# Description: FIGS. 8A-8B. […] Magnification=40×.
# as §1
# [16] = test system: cocaine-treated mice; assay: Cocaine-induced Fos-related antigen-immunoreactivity (FRA-IR) in the striatum; conditions: cocaine 5 mg/kg; morphinan 20 mg/kg i.p.
# [17] = test system: MA-treated mice; assay: Hypokinesia induced by MA; format: in vivo; conditions: 12 and 24 mg/kg; 3 days after final MA
# [18] = test system: MA-treated mice; assay: Striatal dopamine and metabolites in MA-treated mice; format: in vivo; conditions: for Concentration DA in the striatum: 3 days after final MA
# Description: Mice were sacrificed at 3 days after final MA injection.
# [19] = test system: kainate or maximal electric shock; conditions: kainate (24) or maximal electric shock (27); cited from earlier work
compound,measurement,setting,value
"COc1ccc2c(c1)[C@@]13CCCC[C@H]1[C@@H](C2)N(C)CC3 [DM, 3-methoxy-17-methylmorphinan, reference compound]",locomotor pattern (tracings),"[1]; 40 mg/kg i.p. (PCP 5 mg/kg), FIG. 3",produced marginal activity
same,marginal activity (circling behaviour; absolute turn angular),"[1]; 20 or 40 mg/kg i.p./day x 7 (PCP 2.5 or 5 mg/kg), 3-min period, vs saline",significant increase in marginal activity
same,locomotor activity (total distance moved),"[1]; 20 or 40 mg/kg i.p./day x 7 days, 30 min after final treatment, vs saline",significantly increased locomotor activity
same,"effect on LPS-induced reductions in striatal DA, DOPAC and HVA",[2]; 24 mg/kg pretreatment,significantly protected
same,Concentration DOPAC in the striatum,[2]; morphinan 12 (mg/kg) + LPS,68 ± 7 ng/100 mg wet tissue
same,Concentration HVA in the striatum,[2]; morphinan 12 (mg/kg) + LPS,82 ± 9 ng/100 mg wet tissue
same,Concentration DA in the striatum,"[2]; morphinan 12 (mg/kg) + LPS, mean ± S.E.M., 8 animals",612 ± 76 ng/100 mg wet tissue
same,Concentration DOPAC in the striatum,[2]; morphinan 24 (mg/kg) + LPS,105 ± 12^b ng/100 mg wet tissue
same,Concentration HVA in the striatum,[2]; morphinan 24 (mg/kg) + LPS,98 ± 8^b ng/100 mg wet tissue
same,Concentration DA in the striatum,[2]; morphinan 24 (mg/kg) + LPS,892 ± 92^d ng/100 mg wet tissue
same,"effect on MPTP-induced reductions in striatal DA, DOPAC and HVA",[3]; 24 mg/kg pretreatment,significantly protected
same,Concentration DOPAC in the striatum,[3]; morphinan 12 (mg/kg) + MPTP,69 ± 9 ng/100 mg wet tissue
same,Concentration HVA in the striatum,[3]; morphinan 12 (mg/kg) + MPTP,82 ± 9 ng/100 mg wet tissue
same,Concentration DA in the striatum,[3]; morphinan 12 (mg/kg) + MPTP,520 ± 67 ng/100 mg wet tissue
same,Concentration DOPAC in the striatum,[3]; morphinan 24 (mg/kg) + MPTP,85 ± 10^b ng/100 mg wet tissue
same,Concentration HVA in the striatum,[3]; morphinan 24 (mg/kg) + MPTP,98 ± 11^b ng/100 mg wet tissue
same,Concentration DA in the striatum,[3]; morphinan 24 (mg/kg) + MPTP,708 ± 82^b ng/100 mg wet tissue
same,affinity for σ1 receptors,[4],high affinity ligands
same,effect on MA-induced decrease in nigral TH-positive cells,[5],significantly attenuated the decrease in TH-positive cells
same,effect on MA-induced hyperlocomotion,[6],"did not affect MA (1 mg/kg, i.p./day×7)-induced hyperactivity"
same,effect on MPTP-induced reduction in locomotor activity,[7],significantly prevented MPTP-induced reduction in locomotor activity
same,conditioned place preference (CPP),[8],also produced CPP
same,effect on MA-induced hyperthermia (rectal temperature),[9],attenuated by all morphinans used in this study
same,effect on MA-induced behavioural sensitization,[10],did not alter behavioural sensitization by MA
same,effect on LPS-induced decrease in locomotor activity,[11],significantly prevented LPS-induced decrease in locomotor activity
same,effect on MA-induced FRA-IR in the striatum,[12],did not affect this induction of FRA-IR
same,effect on MPTP-induced decrease in nigral TH-positive cells,[13],significantly attenuated the decrease in TH-positive cells
same,effect on locomotor activity induced by low dose of cocaine,"[14]; cocaine 5 mg/kg i.p. x 7 days, morphinan 15 or 30 mg/kg (DF 20 mg/kg) i.p.",enhanced locomotor activity produced by a low dose of cocaine
same,effect on hyperactivity induced by high dose of cocaine,"[14]; cocaine 20 mg/kg i.p. x 7 days, morphinan 15 or 30 mg/kg i.p. 30 min before",attenuated
same,effect on LPS-induced reduction in nigral TH-positive cells,[15],significantly attenuated the reduction in TH-positive cells
same,effect on cocaine-induced FRA-IR in the striatum,[16],Neither DM nor MM affects this induction of FRA-IR
same,effect on MA-induced reduction in locomotor activity,[17],significantly prevented MA-induced reduction in locomotor activity
same,"effect on MA-induced reductions in striatal DA, DOPAC and HVA",[18]; 24 mg/kg pretreatment,significantly protected
same,Concentration DOPAC in the striatum,[18]; morphinan 12 (mg/kg) + MA,83 ± 9 ng/100 mg wet tissue
same,Concentration HVA in the striatum,[18]; morphinan 12 (mg/kg) + MA,82 ± 9 ng/100 mg wet tissue
same,Concentration DA in the striatum,"[18]; morphinan 12 (mg/kg) + MA, mean ± S.E.M., 8 animals",625 ± 74 ng/100 mg wet tissue
same,Concentration DOPAC in the striatum,[18]; morphinan 24 (mg/kg) + MA,98 ± 11^b ng/100 mg wet tissue
same,Concentration HVA in the striatum,[18]; morphinan 24 (mg/kg) + MA,94 ± 8^b ng/100 mg wet tissue
same,Concentration DA in the striatum,[18]; morphinan 24 (mg/kg) + MA,782 ± 72^c ng/100 mg wet tissue
same,anticonvulsant effect,[19],exhibited anticonvulsant effects
